Legend:
[1] = test system: NOMO-1 (Acute Myeloid Leukemia); test: Bliss excess, mean over the matrix (fraction); higher = more synergy
In short: (§1)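 Bliss excess equals the observed combination effect minus the expected value EA + EB − EA·EB, where EA and EB are the effects of each agent alone. Combination Emax is the second-highest inhibition within the matrix. Inhibition was scaled from CellTiter-Glo 2.0 luminescence, with 0 set by vehicle wells and 1 by blank wells, after 72 hours of two-drug dosing of cells plated in 1536-well plates.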

EW-22 (Ewing's Sarcoma) = test: as above
In short: as §1

[2] = test system: MES-SA (Other Solid Carcinomas); test: as above
In short: as §1

HCC38 (Breast Carcinoma) = test: as above
In short: as §1

[3] = test system: SW948 (Colorectal Carcinoma); test: as above
In short: as §1

[4] = test system: NCI-H1688 (Small Cell Lung Carcinoma); test: as above
In short: as §1

[5] = test system: SKN-3 (Head and Neck Carcinoma); test: as above
In short: as §1

HuO9 (Osteosarcoma) = test: as above
In short: as §1

[6] = test system: SW48 (Colorectal Carcinoma); test: as above
In short: as §1

[7] = test system: RCC10RGB (Kidney Carcinoma); test: as above
In short: as §1

[8] = test system: U-118-MG (Low Grade Glioma); test: as above
In short: as §1

[9] = test system: ETK-1 (Biliary Tract Carcinoma); test: as above
In short: as §1

[10] = test system: GDM-1 (Acute Myeloid Leukemia); test: as above
In short: as §1

[11] = test system: D-283MED (Other Solid Carcinomas); test: as above
In short: as §1

[12] = test system: MES-SA (Other Solid Carcinomas); test: combination Emax (second highest fraction inhibited in the dose matrix, 72 h); higher = more inhibition; extreme values may be limits of the assay
In short: as §1

[13] = test system: SLVL (B-Cell Non-Hodgkin's Lymphoma); test: as above
In short: as §1

[14] = test system: 647-V (Bladder Carcinoma); test: as above
In short: as §1

MSTO-211H (Mesothelioma) = test: as above
In short: as §1

[15] = test system: HCC1143 (Breast Carcinoma); test: as above
In short: as §1

[16] = test system: SNG-M (Endometrial Carcinoma); test: as above
In short: as §1

SMILES	Bliss excess [1]	Bliss excess (EW-22 (Ewing's Sarcoma))	Bliss excess [2]	Bliss excess (HCC38 (Breast Carcinoma))	Bliss excess [3]	Bliss excess [4]	Bliss excess [5]	Bliss excess (HuO9 (Osteosarcoma))	Bliss excess [6]	Bliss excess [7]	Bliss excess [8]	Bliss excess [9]	Bliss excess [10]	Bliss excess [11]	combination Emax [12]	combination Emax [13]	combination Emax [14]	combination Emax (MSTO-211H (Mesothelioma))	combination Emax [15]	combination Emax [16]
CC1(C)CCC(CN2CCN(c3ccc(C(=O)NS(=O)(=O)c4ccc(NCC5CCOCC5)c([N+](=O)[O-])c4)c(Oc4cnc5[nH]ccc5c4)c3)CC2)=C(c2ccc(Cl)cc2)C1 [Venetoclax] + CN(C)CCCOc1ccc(-c2ccc3ncc4c(c3c2)n(C2CCOCC2)c(=O)n4C)cn1 [AZD0156] (first compound max 1 µM, 7x7, partner max 1 µM)	0.0226	0.0003	-0.0333	0.0361	-0.0001	0.0209	-0.0221	0.0483	-0.0216	-0.0677	-0.0076	-0.021	-0.0235	0.0189	0.138	0.848	0.196	0.123	0.232	0.127
CC1(C)CCC(CN2CCN(c3ccc(C(=O)NS(=O)(=O)c4ccc(NCC5CCOCC5)c([N+](=O)[O-])c4)c(Oc4cnc5[nH]ccc5c4)c3)CC2)=C(c2ccc(Cl)cc2)C1 [Venetoclax] + COc1cc(Nc2ncc3c(n2)-c2ccc(Cl)cc2C(c2c(F)cccc2OC)=NC3)ccc1C(=O)O [Alisertib] (first compound max 1 µM, 7x7, partner max 10 µM)	0.0906	0.0313	-0.0225	-0.0184	-0.0996	0.0566	-0.0565	0.135	-0.0083	-0.0943	-0.013	-0.0385	0.0312	0.0345	0.671	0.932	0.317	0.734	0.469	0.752
CC1(C)CCC(CN2CCN(c3ccc(C(=O)NS(=O)(=O)c4ccc(NCC5CCOCC5)c([N+](=O)[O-])c4)c(Oc4cnc5[nH]ccc5c4)c3)CC2)=C(c2ccc(Cl)cc2)C1 [Venetoclax] + C[C@@H]1COCCN1C2=NC(=NC(=C2)C3(CC3)[S@](=N)(=O)C)C4=C5C=CNC5=NC=C4 [AZD6738] (first compound max 1 µM, 7x7, partner max 10 µM)	0.015	-0.0189	0.0105	-0.0264	-0.0835	0.0294	-0.043	0.0275	-0.0398	-0.0242	-0.0106	-0.0562	-0.0163	-0.0345	0.671	0.939	0.698	0.596	0.821	0.894
CC1(C)CCC(CN2CCN(c3ccc(C(=O)NS(=O)(=O)c4ccc(NCC5CCOCC5)c([N+](=O)[O-])c4)c(Oc4cnc5[nH]ccc5c4)c3)CC2)=C(c2ccc(Cl)cc2)C1 [Venetoclax] + C[C@@H](Nc1cc(F)cc(F)c1)c1cc(C(=O)N(C)C)cc2c(=O)cc(N3CCOCC3)oc12 [AZD8186] (first compound max 1 µM, 7x7, partner max 3 µM)	0.0654	0.0333	-0.0299	-0.0075	-0.0518	-0.0385	-0.0192	0.0776	-0.0278	-0.0866	-0.0383	-0.0284	0.15	-0.0149	0.168	0.746	0.17	0.207	0.246	0.655
CC1(C)CCC(CN2CCN(c3ccc(C(=O)NS(=O)(=O)c4ccc(NCC5CCOCC5)c([N+](=O)[O-])c4)c(Oc4cnc5[nH]ccc5c4)c3)CC2)=C(c2ccc(Cl)cc2)C1 [Venetoclax] + Cc1cc2ncnn2cc1Nc1ncc2c(n1)n(C1CCOCC1)c(=O)n2C [AZD7648] (first compound max 1 µM, 7x7, partner max 10 µM)	0.02	-0.0094	-0.0384	-0.007	-0.0448	0.0457	-0.0193	0.0557	0.0327	-0.0536	-0.0148	0.0273	0.0419	-0.051	0.302	0.709	0.209	0.22	0.253	0.131
CC1(C)CCC(CN2CCN(c3ccc(C(=O)NS(=O)(=O)c4ccc(NCC5CCOCC5)c([N+](=O)[O-])c4)c(Oc4cnc5[nH]ccc5c4)c3)CC2)=C(c2ccc(Cl)cc2)C1 [Venetoclax] + Cn1cnc2c(F)c(Nc3ccc(Br)cc3Cl)c(C(=O)NOCCO)cc21 [Selumetinib] (first compound max 1 µM, 7x7, partner max 3 µM)	0.0999	-0.0233	-0.0129	-0.0322	-0.0505	-0.0333	0.019	-0.0173	0.0113	-0.079	-0.0336	-0.0333	0.0554	0.009	0.138	0.735	0.133	0.172	0.275	0.2
